Results on one compound are retold here after patent US20100113291A1 (CENTRE NATIONAL DE LA RECHERCHE SCIENTIFIQUE, priority 2006, published 2010).

The assay deals with T1, MabA-wt (Mycobacterium tuberculosis, UniProt P9WGT3).
T1 construct: made in house; host or cells: Escherichia coli
The assay is classed as binding. The settings on record: spectrofluorimetry; read-out: KD for the cofactor.

T1 sequence (P9WGT3 whole entry): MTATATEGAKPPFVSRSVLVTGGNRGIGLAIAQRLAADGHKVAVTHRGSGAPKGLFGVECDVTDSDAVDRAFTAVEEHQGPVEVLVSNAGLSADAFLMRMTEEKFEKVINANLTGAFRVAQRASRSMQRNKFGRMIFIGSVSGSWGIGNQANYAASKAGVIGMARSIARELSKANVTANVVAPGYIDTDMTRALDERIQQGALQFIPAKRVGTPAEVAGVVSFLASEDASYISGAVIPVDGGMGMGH

Broadly, the Kd is the constant that tells how readily two partners part at equilibrium. For `NC(=O)C1=CN([C@@H]2O[C@H](COP(=O)(O)OP(=O)(O)OC[C@H]3O[C@@H](n4cnc5c(N)ncnc54)[C@H](OP(=O)(O)O)[C@@H]3O)[C@@H](O)[C@H]2O)C=CC1` [NADPH], the dissociation constant Kd was 8.7 µM.
